The structures appear in SMILES notation.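 Results reflect a 48-hour exposure of cells in 96-well plates to compound at five concentrations. Abbreviation: GI50, concentration required for 50% inhibition of growth. At the TGI there is no net growth.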

What all share (test): DTP human tumour cell line panel, 48 h
Assay [1] deals with NCI/ADR-RES ovarian.
Assay [2] has as its system SK-OV-3 ovarian.
The test system of assay [3] is HS 578T breast.
Assay [4] deals with OVCAR-8 ovarian.
Assay [5] relates to NCI-H23 lung.
The test system of assay [6] is NCI-H226 lung.
In assay [7] the test system is CAKI-1 renal.
The subject of assay [8] is IGROV1 ovarian.
The subject of assay [9] is SK-MEL-5 melanoma.
The test system of assay [10] is SR leukemia.

The term TGI denotes the concentration giving total growth inhibition. The low end stands for greater sensitivity of the cells, the high end for lower sensitivity of the cells. Regarding `CC(Cl)CN1c2ccccc2Sc2ccc(Cl)cc21` (centres undefined), the TGI in assay [1], in assay [2], in [3], in [4], in [5] and in [6] was over 10 µM throughout. The TGI in assay [7], in [8] and in assay [9] was over 10 µM in each case.
As usually defined, the GI50 is the concentration giving 50% growth inhibition. With `Cc1sc2c(c1C)C(c1ccc(Cl)cc1)=N[C@@H](CC(=O)Nc1ccc(OCCOCCOCCOCCNc3cccc4c3C(=O)N(C3CCC(=O)NC3=O)C4=O)cc1)c1nnc(C)n1-2` (some centres undefined), the GI50 in [1] is over 52.8 µM; in assay [2] it was 0.306 µM; in assay [3], under 0.0178 µM; in assay [4], under 0.0193 µM; in assay [5] it was 3.75 µM; in assay [6], under 0.0212 µM. Further, the GI50 in [10] is under 0.0219 µM; in assay [9], 0.195 µM. For the same compound, the TGI was over 100 µM in assay [1]; over 31.6 µM in [2]; over 100 µM in [3]; over 100 µM in assay [4]; over 100 µM in assay [5]; over 100 µM in [6]. In addition, the TGI is over 100 µM in assay [8], over 100 µM in assay [10] and 27.5 µM in assay [9].
Consider `CCOC(=O)c1sc(NC(=O)COc2cccc(/C=C3\CCc4cc(OC)ccc4C3=O)c2)nc1C`, for which the GI50 was 4.84 µM in assay [1]; 6.39 µM in assay [2]; 3.94 µM in assay [3]; 4.59 µM in [4]; 15.8 µM in assay [5]; 28.3 µM in [6]. The GI50 in assay [7] was 7.16 µM; in assay [8], 3.02 µM; in assay [9] it was 2.65 µM. The total growth inhibition concentration (TGI) in assay [1] was over 100 µM; in [2], over 100 µM; in [3], 49.7 µM; in [4] it was 25.3 µM; in assay [5], over 100 µM; in assay [6], over 100 µM. Moreover, the TGI in [7] was over 100 µM; in assay [8], 21 µM; in assay [9], 13.3 µM.
As to `CCc1nc(Cl)c(Cl)c(Cl)n1`, the TGI in assay [1], in assay [2], in [3], in [4], in [5] and in assay [6] was over 100 µM in each case. The TGI in assay [8], in assay [10] and in [9] was over 100 µM throughout.
Consider `COc1ccc(/C=C/c2cnccn2)cc1OC`, for which the TGI in [1], in assay [2], in [3], in assay [4], in assay [5] and in assay [6] was over 10 µM each time. Besides, the TGI in assay [7], in assay [8] and in [9] was over 10 µM throughout.
Consider `Cc1c2c(C(N)=O)nccc2c(C)c2c1c1ccccc1n2Cc1ccccc1`, for which the total growth inhibition concentration (TGI) is 27.9 µM in [1]; 47.6 µM in [2]; 31.5 µM in assay [3]; 31.3 µM in assay [4]; 78.8 µM in [5]; 69.6 µM in assay [6]. Besides, the TGI stood at 59 µM in assay [7], 42.7 µM in [8] and 67.5 µM in [9].
Consider `C=CCn1c(SCC(=O)Nc2ccc(C(=O)/C=C/c3cc(OC)c(OC)c(OC)c3)cc2)nnc1-c1ccc(OC)cc1`, for which the GI50 is 1.45 µM in assay [1]; 1.21 µM in [2]; 2.12 µM in [3]; 0.755 µM in [4]; 0.67 µM in assay [5]; 0.445 µM in assay [6]. The GI50 in [8] is 0.324 µM; in assay [10], 0.255 µM; in assay [9], 0.79 µM. Also, the concentration for total growth inhibition (TGI) was 17.6 µM in assay [1]; 9.96 µM in assay [2]; 56.7 µM in assay [3]; 10 µM in [4]; 2.66 µM in assay [5]; 1.55 µM in assay [6]. The values for the TGI in assay [8], in [10] and in assay [9] were 1.9 µM, over 46.1 µM and 2.27 µM, respectively.
As for `c1ccc2c(c1)c1ccccc1c1ccccc21`, the GI50 in assay [1], in [2], in assay [3], in assay [4], in assay [5] and in assay [6] was over 100 µM in each case. In addition, the GI50 in assay [7], in assay [8] and in [9] was over 100 µM in each case. The TGI in [1], in assay [2], in assay [3], in assay [4], in assay [5] and in [6] was over 100 µM throughout. Besides, the TGI in [7], in [8] and in assay [9] was over 100 µM each time.
With `Cn1cc(-c2csc(-c3cn(C)c4ccc(F)cc34)n2)c2cnccc21`, the GI50 in assay [1] was 2.03 µM; in assay [2], 2.03 µM; in assay [3] it was 2.36 µM; in [4] it was 2.02 µM; in [5], 1.94 µM; in assay [6] it was 2.05 µM. Also, the GI50 in assay [7] was 1.77 µM; in assay [8] it was 1.96 µM; in [9], 1.66 µM. In addition, the TGI turned out to be 4.02 µM in assay [1]; 3.75 µM in assay [2]; 5.12 µM in assay [3]; 3.93 µM in assay [4]; 3.58 µM in assay [5]; 4.26 µM in assay [6]. Further, the figures for the TGI in [7], in assay [8] and in [9] were 3.19 µM, 3.63 µM and 3.05 µM, respectively.
On to `c1ccc(NCCSc2nc3ccccc3s2)cc1`, for which the TGI in [1], in [2], in assay [3], in assay [4], in assay [5] and in [7] was over 100 µM throughout. Also, the TGI in [8] was over 100 µM; in assay [10], over 100 µM; in assay [9], 42.3 µM.

Values taken from PubChem BioAssay (NCI).
